Results published in PMC2211560 (PLoS Medicine, 2008).
Several values for one entry are separate records, joined by “and”; a condition that tells them apart may be missing. Equal entries are not always repeated. Where two headings read alike, the source gives them in different places.

What was measured:
[1] = tested on: PTEN-null cell lines; design: method as in PMID 11504908, PMID 11566616; settings: PTEN-null cell lines in vitro; cited from earlier work
[2] = cited from earlier work; for mucosal HERPES SIMPLEX infections, patients: phase III trial, with cyclosporine and corticosteroids, ref MacDonald et al, 2001
[3] = tested on: PTEN-deficient glioblastoma; assay: Ki-67 labeling index of tumor tissue (S2 versus S1); assay type: in vivo, human; settings: for Ki-67 Decrease: about 1 wk pre-operative, S2 vs S1, individual patients
Text: To quantify mTOR activity in matched S1 and S2 samples, we measured phosphorylation of S6 ribosomal protein by immunohistochemistry using two distinct phosphosite antibodies directed against Ser235/236 or Ser240/244. […] Immunohistochemistry (IHC) scoring is described in detail in Text S1.
The following antibodies were used for IHC: anti-PTEN (6H2.1, #ABM-2052, Cascade BioScience; 1:400 dilution), anti-Ki-67 (MIB-1, M7240, DakoCytomation; 1:100 Dilution), anti-phospho Ser235/236 S6 (91B2, #4857, Cell Signaling; 1:50 dilution), anti phospho Ser240/244 S6 (#2215, Cell Signaling; 1:200 dilution), anti-phospho-PRAS 40 (#44–1100G, Biosource; 1:200 dilution), anti-phospho Ser473 Akt (736E11, #3787, Cell Signaling; 1:50 dilution), anti-phospho Thr389 p70 S6 Kinase (#9205, Cell Signaling; 1:100 Dilution), and anti phospho Ser1108 eIF4G at 1:400 (#2441, Cell Signaling; 1:400 dilution). Antigen retrieval was performed using 0.01 M citrate buffer, pH 6.0 for 30 min in an oven and peroxidase activity was quenched with 3% hydrogen peroxide in water. Primary antibodies were diluted in PBS /2% bovine serum albumin/2% normal horse serum (for anti-PTEN) or TBS/0.1% Tween/5% normal goat serum (for phosphosite-specific antibodies) and applied overnight at 4 °C. […]
Scoring of immunohistochemical stains. […] Digital scores for PTEN, phospho-S6, and phospho-PRAS40 are based on absolute staining intensity of tumor cells as quantified following false-color conversion. PTEN, phospho-S6, phospho-PRAS40, and Ki-67 were scored in representative and matching areas of consecutive tissue sections (Suppl. Fig. 1), excluding areas with large vessels and/or prominent reactive changes (e.g., reactive astrogliosis or lymphocytic infiltration). […] Quantitative analysis was done using HSI color algorithm based on hue, saturation and intensity. Saturations of the separated cell in the images were quantified in the red-brown hue range to exclude the negative staining area with hematoxylin nuclear staining. To compare the staining intensity of all slides, mean saturation of total cells on each image was quantified and calculated. For Ki-67 staining scoring, separated cells were quantified with red brown hue range (positive staining) and total hue range (all cells) after cell border separation and Ki-67 labeling index was calculated based on these numbers. For p-PRAS40 scoring, mean saturation of the positive staining tumor cells was quantified in the red-brown hue range, followed by multiplying the positive cell ratio in the same image to evaluate both staining intensity and staining distribution. pS473 Akt was quantified on a scale of 0-2; 0^+ = no staining, 1^+ = mild intensity cytoplasmic staining, and 2^+ = strong cytoplasmic staining. […]

[4] = tested on: cytochrome P450 isoenzyme 3A4; settings: cited from earlier work

## CO[C@H]1C[C@@H]2CC[C@@H](C)[C@@](O)(O2)C(=O)C(=O)N2CCCC[C@H]2C(=O)O[C@H]([C@H](C)C[C@@H]2CC[C@@H](O)[C@H](OC)C2)CC(=O)[C@H](C)/C=C(\C)[C@@H](O)[C@@H](OC)C(=O)[C@H](C)C[C@H](C)/C=C/C=C/C=C/1C [Rapamycin]
[1]
  Rapamycin concentrations known to confer antiproliferative activity: ~1 nM
[2]; human, in vivo
  ANEMIA, patients: 27-37%
  ARTHRALGIA: 25-31%
  CONSTIPATION: 28-36%
  DIARRHEA: 25-42%
  DYSPEPSIA: 17-25%
  DYSPNEA, patients: 22-30%
  EPISTAXIS, patients: 9%
  HEADACHE, patients: 23-34%
  HYPERTENSION, patients: 43-45%
  HYPOKALEMIA, patients: 11-21%
  HYPOPHOSPHATEMIA, patients: 15-23%
  Hyperlipidemia: 38-57%
  NAUSEA: 25-36%
  Normalization of platelet counts after discontinuation: ≤ 2 weeks
  Peripheral EDEMA, patients: 54-64%
  Posttransplant lymphoproliferative disease (PTLD): 0.8%
  THROMBOCYTOPENIA, patients: 13-30%
  VOMITING: 19-25%
  arthralgia, patients: 23%
  hypercholesterolemia: 38-46%
  insomnia, patients: 13-22%
  patients with triglyceride levels exceeding 5 mmol/L: 75%
  total cholesterol mean peak: 12 mmol/L
  tremor, patients: 21-31%
[2]; sirolimus 2 mg/day
  mucosal HERPES SIMPLEX infections, patients: 10%
[2]; sirolimus 5 milligrams (mg)/day
  mucosal HERPES SIMPLEX infections, patients: 19%
[3]; 2 mg oral daily
  Ki-67 Decrease: Yes and No
[3]; 5 mg oral daily
  Ki-67 Decrease: No and Yes
[3]; 10 mg oral daily
  Ki-67 Decrease: Yes and No
[3]; Ki-67 staining after about 1 wk of rapamycin
  patients with nearly complete inhibition (dramatic reduction) of tumor cell proliferation: seven of 14 and 7/14
[4]
  cytochrome P450 substrate: substrate for the cytochrome P450 isoenzyme 3A4
